Data on one substance can be found in US10111901B2, “Beta-glucan in combination with anti-cancer agents affecting the tumor microenvironment” (Biothera, Inc., priority 2014, dated 2018).

One assay concerns CD33+ MDSC. The assay is described as follows: MDSC in peripheral blood of a case study subject treated with IMPRIME PGG. The note with it: post-infusion, cycle 8, day 1; within hours. It is filed as in vivo, human. From the text:
Blood was drawn at various times from a case study subject undergoing treatment with IMPRIME PGG and analyzed for the presence of MDSC. The first blood draw was done pre-infusion, cycle 8, day 1. […] A second blood draw was done post-infusion, cycle 8, day 1. […] The last blood sample was drawn pre-infusion, cycle 8, day 15. The CD33^+ MDSC are again present in the peripheral blood.

Another assay relates to MC38 tumor cells. The assay is described as follows: MC38 tumor model, tumor-free survival. The note with it: C57BL/6 mice, MC38 s.c.; biweekly from day 3; 1.2 mg/mouse IMPRIME PGG, 100 μs/mouse anti-PDL-1; survivors/group size. It is filed as in vivo. The procedure: In another animal study, mice were injected with MC38 tumor cells and randomized into treatment groups. 8 to 12 week-old female C57BL/6 mice were injected with 1×10^6 MC38 tumor cells, a colon adenocarcinoma that expresses low levels of PD-L1, in a volume of 0.1 ml injected subcutaneously in the flank. Mice were dosed biweekly starting on day 3 with the following agents: • 0.2 ml/mouse vehicle • 1.2 mg/mouse IMPRIME PGG (Biothera, Inc.) • 100 μs/mouse anti-PDL-1 Clone: 10F.9G2 BioXcell Catalog#: BE0101
Blood samples were collected 1 hour prior to dose 1, 2 hours after dose 3, the endpoint and 2 hours after the last dose (day 20). Treatment groups included vehicle (PBS control), IMPRIME PGG alone, anti-PD-L1 antibody alone and anti-PD-L1+IMPRIME PGG. Tumors were randomized to treatment groups once sizes reached a group mean of 150 mm^3.

Another assay has as its system MiaPaCa. The assay is described as follows: PD-L1 upregulation in MiaPaCa tumor cells by treated M2 macrophages. Type of assay: cell-based. The procedure: β-glucan- and vehicle-treated M2 macrophages and β-glucan-treated M2 macrophages+ABA were cultured with high binder serum and low binder serum to evaluate PD-L1 expression on tumor cells.
In a further assay the test system is IL-4. Briefly: IL-4 analysis of co-culture supernatants. The note with it: co-cultures of β-glucan-treated M2 macrophages and CD4 T cells. Type of assay: cell-based, human. The method, then:
CD14^+ monocytes from human whole blood were enriched using Ficoll gradient and magnetic bead separation. Enriched monocytes (5×10^5 cells per mL) were then cultured in either M1-polarizing (XVivo 10 media (Lonza Group) supplemented with 5% autologous serum and 100 ng/mL recombinant human granulocyte macrophage colony-stimulating factor (rhGM-CSF) (R&D Systems) or M2-polarizing (XVivo 10 media supplemented with 10% autologous serum and 50 ng/mL recombinant human macrophage colony-stimulating factor (rhM-CSF) (R&D Systems) conditions for 6 days. In experiments performed to evaluate the effect of β-glucan, whole blood was first incubated with vehicle (sodium citrate buffer) or 25 μg/mL soluble β-glucan for 2 hours at 37° C. and then the monocytes were isolated and differentiated. Morphology was checked before macrophages were harvested for phenotypic analysis. […] T cell proliferation was measured at the end of the experiment (day 9-day 11) by flow cytometry, and results are graphically shown as CFSE-dilution peaks. […] Quantitative results were reported as the Division Index (the average number of cell divisions a population underwent) calculated for each of the triplicate wells in each of the culture conditions. […]
Modulation of IFN-γ and IL-4 production of vehicle- and β-glucan-treated M2 macrophages was then evaluated. […]

Another assay relates to Tregs (CD4+CD25+). Briefly: Treg suppression assay. It is filed as cell-based, human. The procedure:
Since these PBMC cultures contain Tregs, the suppressive ability of Tregs seem to be altered in the presence of soluble β-glucan and studies were carried out to determine if β-glucan affected Treg suppression. Plasma from β-glucan-treated or vehicle-treated whole blood (described above) was added to 25,000 isolated CFSE-labeled autologous CD4 T cells (CD4^+CD25^−) along with increasing numbers of isolated autologous Tregs (CD4^+CD25^+) resulting in wells with increasing ratios. Cells were then stimulated with 50,000 T cell activating CD3/28 beads for 3 days. Proliferation was subsequently measured by CFSE dilution and quantified by Division Index, which was used to calculate the % suppression of Tregs in the co-culture. % suppression=100−(Division Index of Treg well/Division Index of 1:0 well)[…].
The Treg suppression assay was conducted as described above, and after 3 days of co-culture, supernatants were analyzed for IFN-gamma production.

The subject of the next assay is CD4 T cells. Briefly: Mac-CD4 T cell proliferation assay (CFSE dilution, Division Index). Type of assay: cell-based, human. The procedure:
CD14^+ monocytes from human whole blood were enriched using Ficoll gradient and magnetic bead separation. Enriched monocytes (5×10^5 cells per mL) were then cultured in either M1-polarizing (XVivo 10 media (Lonza Group) supplemented with 5% autologous serum and 100 ng/mL recombinant human granulocyte macrophage colony-stimulating factor (rhGM-CSF) (R&D Systems) or M2-polarizing (XVivo 10 media supplemented with 10% autologous serum and 50 ng/mL recombinant human macrophage colony-stimulating factor (rhM-CSF) (R&D Systems) conditions for 6 days. In experiments performed to evaluate the effect of β-glucan, whole blood was first incubated with vehicle (sodium citrate buffer) or 25 μg/mL soluble β-glucan for 2 hours at 37° C. and then the monocytes were isolated and differentiated. Morphology was checked before macrophages were harvested for phenotypic analysis. Culture medium of the day 6 macrophage culture (MCM) was collected, spun down to remove contaminated cell pellet and then frozen down for subsequent cytokine analysis by ELISA or used to setup a co-culture with CD3 & CD28-stimulated CD4 T cells (MCM-CD4 T) for evaluation of either surface markers or CD4 T cell proliferation. The macrophages were used to setup a co-culture with CD3 & CD28- or CD3 only-stimulated CD4 T cells (Mac-CD4 T) on day 6 for evaluation of either surface marker modulation or effect on CD4 T cell proliferation. For Mac-CD4 T cell proliferation study, M1 or M2 macrophages were cultured with CD3 & CD28- or CD3 only-stimulated, CFSE-labeled, autologous CD4 T cells at a 1:10 ratio. T cell proliferation was measured at the end of the experiment (day 9-day 11) by flow cytometry, and results are graphically shown as CFSE-dilution peaks. The assessment of CD3-only stimulated T cells was always done on day 11. Quantitative results were reported as the Division Index (the average number of cell divisions a population underwent) calculated for each of the triplicate wells in each of the culture conditions. Culture supernatants of Mac-CD4 T co-cultures were collected for subsequent cytokine analysis.
Next, vehicle- or β-glucan-treated M1 or M2 macrophages were cultured with CD3 and CD28-stimulated, carboxyfluorescein diacetate succinimidyl ester (CFSE)-labeled autologous CD4 T cells and T cell proliferation was measured at the end of the experiment by flow cytometry and results quantitatively reported as division index (the average number of cell divisions a population has undergone).
Next, the ability of M1/M2 macrophages derived from soluble β-glucan-treated monocytes from high binders and low binders to enhance CD3 & CD28-stimulated CD4 T cell proliferation was evaluated.
Evaluation of cell-to-cell contact was carried out as follows: vehicle- and β-glucan-treated M2 macrophages and CD3 & CD28− versus CD3 only-stimulated CD4 T cell co-cultures were utilized for measuring CD4 T cell proliferation and IFN-γ production.

Assay [1] has as its system tumor cell lines, including NSCLC, breast, pancreatic, colon, and B cell lymphoma. Briefly: PD-L1 expression on tumor cell lines incubated with supernatant of M2 macrophage/MoDC and T cell co-culture. It is filed as cell-based. The note with it: supernatants of proliferation assays, 48 hours. The procedure: M2 macrophages and MoDC were prepared as described above. The macrophages and the MoDC were subsequently used in T cell proliferation assays as described previously. The supernatants from these proliferation assays were harvested and incubated with various tumor cell lines, including NSCLC, breast, pancreatic, colon, and B cell lymphoma. The expression of PD-L1 on these tumor cell lines were evaluated post 48 hours by flow cytometry. Shown in FIG. 15 are representative results from 3 different experiments.

As for “β(1,6)-[poly-(1,3)-D-glucopyranosyl]-poly-β(1,3)-D-glucopyranose [β-glucan]”, the “CD33+ MDSC in peripheral blood” value with CD33+ MDSC is listed as “transiently disappear”. In the assay with MC38 tumor cells, the “Tumor-free Survivors (day 29)” value is on record as 2/18. Also, the “expression of PD-L1 on tumor cells” value in the assay with MiaPaCa (β-glucan-treated M2 macrophages with addition of ABA, low binders) is on record as “also increased expression”; in the assay on MiaPaCa (β-glucan-treated M2 macrophages, high binders), “increased expression”. The “production of immunosuppressive cytokine IL-4” value in the assay on IL-4 is recorded as “no change”. Moreover, the IFN-gamma production entry with Tregs (CD4+CD25+) (Treg suppression assay, 3 days, 8:1 T cell to Treg ratio) is “enhanced IFN-gamma production”. For the same substance, in the assay with Tregs (CD4+CD25+) (plasma from β-glucan-treated whole blood vs vehicle-treated), the “suppressive capacity of Tregs” value is recorded as “significant decreases”. In addition, the “CD4 T cell proliferation” value is on record as “maintained the ability to enhance CD4 T cell proliferation” with CD4 T cells (M2 macrophages cultured in TCM and M2a macrophages cultured in IL-4, vs vehicle-treated); “enhance CD4 T cell proliferation” in the assay with CD4 T cells (β-glucan-treated M2 macrophages with CD3 and CD28-stimulated CD4 T cells, FIG. 2C); “significantly higher ability to enhance” in the assay with CD4 T cells (β-glucan-treated M2 macrophages, absence of exogenous CD28 antibody (CD3 only)). The “CD3 & CD28-stimulated CD4 T cell proliferation” value in the assay with CD4 T cells (β-glucan-treated M1 macrophages, high binders or low binders) is “no differences”; in the assay with CD4 T cells (β-glucan-treated M2 macrophages vs vehicle-treated, high binders), “significantly higher ability to enhance”; with CD4 T cells (β-glucan-treated M2 macrophages, low binders), “no enhanced proliferation”. Moreover, in assay [1], the “PD-L1 expression on the tumor cell lines” value is “enhances PD-L1 expression”.
